Values quoted from earlier work as cited in US20260096996A1, “PHARMACEUTICAL COMPOSITIONS OF TRETINOIN AND METHODS OF PRODUCING SUCH COMPOSITIONS” (Douglas Pharmaceuticals Limited, priority 2022, published 2026).

Columns and labels:
[1] = patients treated for APL

- absolute bioavailability (in vivo): approximately 50%
- administered radiolabel recovered in the urine (orally administered, human): approximately two-thirds
- radioactivity recovered in the urine (within 72 hours, radiolabeled tretinoin 2.75 mg and 50 mg): approximately 63%
- radioactivity appeared in the feces (within 6 days, radiolabeled tretinoin 2.75 mg and 50 mg): 31%
- patients experiencing nausea and vomiting [1]: More than half
SMILES: CC1=C(/C=C/C(C)=C/C=C/C(C)=C/C(=O)O)C(C)(C)CCC1 [tretinoin, all-trans retinoic acid]
